From patent publication USRE42700E1, “Induction of apoptosis in cancer cells” (Sanford-Burnham Medical Research Institute, priority 2001, dated 2011)

Columns and labels:
RARγ = RARγ (Homo sapiens, UniProt P13631); experiment: activation of RARγ on the (TREpal)2-tk-CAT reporter construct; type: cell-based
MCF-7 = experiment: apoptosis induction / cell death in breast cancer cells; type: cell-based, human
[1] = system: human acute megakaryocytic leukemia cell line M07e; experiment: M07e cell growth / proliferation; type: cell-based
Protocol: Cell Growth: IL-3-transfected M07e cells have been described by Thacker, D. J., et al., Leukemia 8: 871-877 (1994). Cells were grown in RPMI supplemented with 5 percent heat-inactivated fetal bovine serum (FBS) and 25 μg/ml gentamycin in a […], 5% CO2, and 100% humidity environment. Leukemic cells were obtained from patients who met the criteria for the diagnosis of AML or CML in blast crisis (see Table 1). Studies were approved by the Wayne State University Institutional Review Board. Informed consent was obtained from all patients. Leukemic blasts from patients were isolated using Ficoll hypaque. Cells at the interface between plasma and red blood cells were diluted with sterile PBS, then layered over Ficoll hypaque (1.077 density), and the leukemic cells collected at the interface. The sample to be studied represented greater than 90% blasts. The patient leukemia samples were grown in RPMI medium supplemented with 10% FBS, gentamycin (25 μg/ml), IL-3 (20 ng/ml), SCF (25 ng/ml), GM-CSF (20 ng/ml) and G-CSF (20 ng/ml). Cell growth was assessed using a cell proliferation kit.

RARα = RARα (Homo sapiens, UniProt P10276); experiment: activation of RARα on the (TREpal)2-tk-CAT reporter construct; type: cell-based; conditions: 1.0 μM
RARα, sequence (P10276 whole entry, species assumed): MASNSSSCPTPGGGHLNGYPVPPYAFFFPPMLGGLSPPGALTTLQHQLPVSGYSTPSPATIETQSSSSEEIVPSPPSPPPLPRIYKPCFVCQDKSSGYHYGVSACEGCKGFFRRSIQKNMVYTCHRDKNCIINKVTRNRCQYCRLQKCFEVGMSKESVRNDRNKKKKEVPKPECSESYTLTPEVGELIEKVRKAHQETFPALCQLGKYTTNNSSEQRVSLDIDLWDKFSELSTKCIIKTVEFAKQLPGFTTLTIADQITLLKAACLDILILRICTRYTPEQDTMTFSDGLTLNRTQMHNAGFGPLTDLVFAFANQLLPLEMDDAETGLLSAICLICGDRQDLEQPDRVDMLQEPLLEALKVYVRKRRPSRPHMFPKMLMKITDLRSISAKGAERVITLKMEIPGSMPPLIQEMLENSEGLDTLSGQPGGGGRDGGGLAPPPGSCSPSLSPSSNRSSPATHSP

[2] = system: mouse mammary adenocarcinoma 16/C; experiment: mouse mammary adenocarcinoma 16/C in syngeneic female C3H mice
Protocol: The ability of 3-Cl-AHPC to inhibit the in vivo growth of breast carcinoma cells was tested using syngeneic mouse mammary and human breast adenocarcinoma SCID xenograft models.

[3] = system: leukemic blasts from patient 1; experiment: leukemia colony formation in methylcellulose; type: cell-based, human; conditions: 14 days
Protocol: Leukemia Colony Formation: Leukemic blasts (1×10^5 cells) from patient 1 (Table 1) were isolated as described above and cultured in methylcellulose supplemented with 20% FCS, SCF, and IL-3, GM-CSF and G-CSF at a final concentration of 10 ng per ml, cells were incubated for 14 days at 37° C. in a 5% CO2 humidified atmosphere in the presence and absence of 3-Cl-AHPC after which time colonies (>40 cells) were counted.

caspases in M07e cells = experiment: caspase activation in M07e cells; type: cell-based, human
Protocol: (§1) Activation of caspases-1, -2, -3, -6, -8 and -9 was assessed using a caspase activation kit.

[4] = system: caspases in patient leukemic cells; experiment: caspase activation in patient leukemic cells; type: cell-based, human; conditions: 1 μM
Protocol: as §1

mouse CFU-GM = experiment: CFU-GM colony formation, mouse bone marrow; type: cell-based
Protocol: (§2) CFU-GM Colony Formation: The CFU-GM colony assay was performed as described in Parchment et al., (J. Natl. Cancer Inst. 86: 273-280 (1994)).

[5] = CFU-GM colony formation, mouse bone marrow; type: cell-based; conditions: mouse, bone marrow CFU-GM progenitor cells
Protocol: as §2

Murine AML 1498 cells = experiment: murine AML 1498 implanted intravenously in C57BL/6 mice
Excerpt: Tumor Maintenance: Murine AML1498 cells were maintained in the mouse strain of origin (C57BL/6) and transplanted into this same inbred strain chemotherapy trials. Individual mouse body weights for each experiment were within five grams, and all mice were more than 20 grams (mean) at the start of therapy. Mice were supplied food and water ad libitum.
Treatment was started the day after implantation of AML cells.
End Points for Assessing Antitumor Activity: The following quantitative endpoints were used to assess antitumor activity
a) Percent Increase in Lifespan (% ILS): For leukemic mice: • % ILS=(T−C)/C×100; in which C=median day of death of control group and T=median day of death of treated group. Survival was the endpoint; with moribund mice sacrificed. Cause of death was verified by necropsy.
b) Calculation of Tumor Cell Kill: For leukemic survival trials, the log10 cell kill was calculated from the following formula:
[formula] where T is median day of death for treated group and C is median day of death for control group (Corbett, T. H., et al., Invest. New Drugs, 17: 17-27 (1999) and Teicher, B. A., In vivo tumor response end points, In Tumor Models in Cancer Research, B. Teicher, editor, Humana Press Inc./Totowa, N.J., pp. 593-616 (2001)). Td is determined from differences in the median days of death of the titered control groups.

MDA-MB-468 = experiment: apoptosis induction / cell death in breast cancer cells; type: cell-based, human
MDA-MB-231 = experiment: as above; type: cell-based, human
[6] = system: ALL cells obtained from patients; experiment: apoptosis of primary ALL cells obtained from patients; type: cell-based, human; conditions: primary cultures
[7] = total dose 44 mg/kg, days 1-4, 6-8
[8] = total dose 89 mg/kg, days 1-4, 6-8
[9] = total dose 178 mg/kg, days 1-4, 6, 8
[10] = total dose 80 mg/kg, qd 1-5, 5 × 10^6 cells
[11] = total dose 115 mg/kg, qd 1-5, 5 × 10^6 cells
[12] = total dose 140 mg/kg, qd 1-4, 5 × 10^6 cells

RARγ, sequence (P13631 whole entry, species assumed): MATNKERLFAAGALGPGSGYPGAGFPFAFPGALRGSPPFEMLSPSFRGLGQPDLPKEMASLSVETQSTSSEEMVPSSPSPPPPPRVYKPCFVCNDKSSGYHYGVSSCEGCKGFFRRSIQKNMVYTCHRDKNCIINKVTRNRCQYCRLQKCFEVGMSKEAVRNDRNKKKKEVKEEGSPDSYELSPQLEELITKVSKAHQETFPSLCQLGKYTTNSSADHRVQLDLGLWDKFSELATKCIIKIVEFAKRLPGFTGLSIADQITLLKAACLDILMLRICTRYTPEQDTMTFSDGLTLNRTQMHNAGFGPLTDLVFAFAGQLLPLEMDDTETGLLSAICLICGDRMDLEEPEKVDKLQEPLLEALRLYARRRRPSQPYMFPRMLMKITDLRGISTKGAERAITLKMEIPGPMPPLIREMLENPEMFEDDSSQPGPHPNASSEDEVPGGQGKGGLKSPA

O=C(O)/C=C/c1ccc(-c2ccc(O)c(C34CC5CC(CC(C5)C3)C4)c2)c(Cl)c1 [Example 3-Cl-AHPC, (E)-4-[3-(1-Adamantyl)-4-hydroxyphenyl]-3-chlorocinnamic acid]
activation of RARγ relative to that of 1.0 μM tRA (RARγ): less than 10% | ED50 (concentration that results in 50% cell death) (MCF-7): 0.85 µM | concentration required to inhibit growth of M07e cells [1]: 0.2 µM | inhibition of growth ([1]; 0.2 μM): inhibition of growth | inhibition of proliferation ([1]; varying concentrations over time): progressive increase in the inhibition of proliferation | activation of RARα (RARα): does not activate | inhibition of tumor growth ([2]; T/C=20%): 80% | toxicity as evidenced by weight loss of the mice ([2]; compared to AHPN): minimal toxicity | % body wt. loss [2, 7]: 4% | Drug deaths [2, 7]: 0/5 | T/C % [2, 7]: >100% | % body wt. loss [2, 8]: −3% | Drug deaths [2, 8]: 0/5 | T/C % [2, 8]: 47% | % body wt. loss [2, 9]: −4% | Drug deaths [2, 9]: 0/5 | Log cell kill [2, 9]: 0.9 | T/C % [2, 9]: 20% | concentration for complete inhibition of leukemia colony formation [3]: 600 nM | IC50 ([3]; Homo sapiens, 336 h, patient 1, read-out: inhibition of leukemia colony formation, ED50 (IC50)): 375 nM | increase in activity of caspase-2 (caspases in M07e cells; 0.5 μM): approximately 2 fold | increase in activity of caspase-3 (caspases in M07e cells; 0.5 μM): approximately 2 fold | increase in activity of caspase-6 (caspases in M07e cells; 0.5 μM): approximately 2 fold | increase in activity of caspase-8 (caspases in M07e cells; 0.5 μM): approximately 2 fold | increase in activity of caspase-2 (caspases in M07e cells; 1 μM): approximately 4 fold | increase in activity of caspase-3 (caspases in M07e cells; 1 μM): 2.5 fold | increase in activity of caspase-6 (caspases in M07e cells; 1 μM): 3 fold | increase in activity of caspase-8 (caspases in M07e cells; 1 μM): approximately 4 fold | activation of caspase-2 [4]: 6 fold | activation of caspase-5 [4]: two-fold | activation of caspase-6 [4]: 4 fold | activation of caspase-8 [4]: 4 fold | activation of caspase-9 [4]: two-fold | activation of caspase-3 ([4]; 24 hours): 8 fold | activation of caspase-3 ([4]; 48 hours): 14 fold | toxicity to mouse relative to human CFU-GM (mouse CFU-GM): 30 fold | IC90 [5]: 315 to 794 nM | animal deaths (Murine AML 1498 cells; 140 mg/kg total dose over four days): no animal deaths | Body Wt. Loss (Murine AML 1498 cells; [10]): +0.0% | ILS (Murine AML 1498 cells; [10]): 50% | Log cell kill (Murine AML 1498 cells; [10]): 2.6 | Mean Body Wt. Loss (Murine AML 1498 cells; [10]): +0.0 g/mouse | Median Day of Tumor Death (range) (Murine AML 1498 cells; [10]): 9 (8,9,9,9,10) | ILS (Murine AML 1498 cells; [11]): 83% | Log cell kill (Murine AML 1498 cells; [11]): 3.3 | Median Day of Tumor Death (range) (Murine AML 1498 cells; [11]): 11 (10,10,11,11,11) | Mean Body Wt. Loss (Murine AML 1498 cells; total dose 115 mg/kg, qd 1-5, 5 × 10^6 cells, negative = loss): −1.2 g/mouse | ILS (Murine AML 1498 cells; [12]): 83% | Log cell kill (Murine AML 1498 cells; [12]): 3.3 | Median Day of Tumor Death (range) (Murine AML 1498 cells; [12]): 11(10,11,11,11,11) | Mean Body Wt. Loss (Murine AML 1498 cells; total dose 140 mg/kg, qd 1-4, 5 × 10^6 cells, negative = loss): −3.6 g/mouse | ED50 (concentration that results in 50% cell death) (MDA-MB-468): 0.71 µM | ED50 (concentration that results in 50% cell death) (MDA-MB-231): 0.65 µM | apoptosis of ALL cells obtained from patients [6]: resulted in their apoptosis
